{"source": "patent US11622975B2", "about": "“Compositions and methods for improved honey bee health” (priority 2019, dated 2023)", "key": {"[1]": {"system": "honey bees infected with Deformed wing virus", "test": "Survival of virus-infected honey bees after MBCD treatment", "type": "in vivo, Apis mellifera", "details": "10 μg/bee MBCD in 50% sucrose, untreated 6 days", "experimental": "(§1) The presence of DWV and Varroa destructor was determined as follows. Total RNA was extracted from whole body 12 individual honey bees using the TRIzol Reagent® (available from Thermo Fisher Scientific, Waltham, Mass.) by manufacturers specifications, and stored at −80° C. First-strand cDNA was synthesized using the Superscript III Reverse Transcriptase (available in a kit from Thermo Fisher Scientific). […] Transcript levels (RT-qPCR analysis) were quantified using the Brilliant III Ultra-Fast SYBR Green® QPCR Master Mix (Agilent Technologies, Inc., Santa Clara, Calif.) on a CFX384 Touch Real Time PCR Detection System (Bio-Rad Laboratories, Inc., Hercules, Calif.). […] For the detection and quantification of negative stranded bee viruses, replication intermediates, TAG-DWV primers were substituted for random primers or oligos (see e.g., Boncristiani et al., 2009). The fold difference in viral concentration among different treatment groups was determined using the comparative Ct method (2^−ΔΔCT method) (see e.g., Livak & Schmittgen, 2001). […]\nUntreated bees fed only 50% sucrose were compared to bees receiving 10 μg/bee MBCD in 50% sucrose (FIG. 7). […] Bees were measured 3 (FIG. 8A) and 6 (FIG. 8B) days post feeding. […]"}, "[2]": {"system": "glutathione-S-transferase S1 (GSTS1)", "test": "Transcript levels of honey bee detoxification gene (RT-qPCR)", "type": "in vivo, Apis mellifera", "details": "clothianidin plus 10 μg/bee MBCD versus pesticide only, after 3 days of feeding", "experimental": "Bees receiving clothianidin were compared to bees receiving the pesticide with the addition of 1 μg or 10 μg/bee MBCD after 3 days of feeding. One-way ANOVA with Tukey multiple comparisons was performed to determine any statistical significance (p<0.05 for Clothianidin versus Clothianidin+10 μg/bee MBCD). The “*” denotes the sample chosen as the 2^−ΔΔCT calibrator. […] Pesticides removed from the immediate environment results in less energy dedicated to detoxification and excretion.\nas §1, with “C.” for “C. First-strand cDNA was synthesized using the Superscript III Reverse Transcriptase (available in a kit from Thermo Fisher Scientific).”"}, "[3]": {"system": "honey bees infected with Deformed wing virus", "test": "Weight of virus-infected honey bees after MBCD treatment", "type": "in vivo, Apis mellifera", "details": "10 μg/bee MBCD", "experimental": "Untreated bees fed only 50% sucrose were compared to bees receiving 10 μg/bee MBCD in 50% sucrose (FIG. 7). Median survival was represented for each treatment by (# days). Curves were compared using Log-Rank Mantel-Cox (p<0.001) and Gehan-Breslow-Wilcoxon (p<0.01). […] The mass ([…]) of control bees was compared to bees fed 10 μg/bee MBCD. Bees were measured 3 (FIG. 8A) and 6 (FIG. 8B) days post feeding. With average bee weight higher along with more bees present, the amount of work accomplished in the hive as a whole would be expected to increase. An unpaired, 2-tailed Student's T-Test was performed to determine statistical significance (p<0.05 at 3 days) and bars denote standard error."}, "[4]": {"system": "Deformed wing virus (DWV)", "test": "Viral load (RT-qPCR) in virus-infected honey bees after MBCD treatment", "type": "in vivo, Apis mellifera", "details": "10 μg/bee MBCD; for decrease in DWV (+) sense viral genome: versus untreated infected bees", "experimental": "The presence of DWV and Varroa destructor was determined as follows. Total RNA was extracted from whole body 12 individual honey bees using the TRIzol Reagent® (available from Thermo Fisher Scientific, Waltham, Mass.) by manufacturers specifications, and stored at −80° C. First-strand cDNA was synthesized using the Superscript III Reverse Transcriptase (available in a kit from Thermo Fisher Scientific). Briefly, each reaction contained: 3 μl total bee RNA (˜1 μg/μl), 1 μl of 10 mM dNTPs, 1 μl random primers (0.15 μg/μl), 1 μL of Oligo(dT), 1 μl of 0.1 M DTT (0.1 M), 4 μl 5×First-Strand Buffer, 1 uL of 200 U/μL RnaseOUT, 1 μl of 200 U/μl SuperScript III Reverse Transcriptase, and 7 μl Nuclease-free water. The reaction mixture was incubated at 25° C. for 5 min, 55° C. for 2 hrs, and 70° C. for 15 min, then stored at −20° C. until use. Transcript levels (RT-qPCR analysis) were quantified using the Brilliant III Ultra-Fast SYBR Green® QPCR Master Mix (Agilent Technologies, Inc., Santa Clara, Calif.) on a CFX384 Touch Real Time PCR Detection System (Bio-Rad Laboratories, Inc., Hercules, Calif.). Samples were incubated at 95° C. for 5 min, followed by 40 cycles of 95° C. for 20 s, 59° C. for 20 s, and 72° C. for 20 s. Thereafter, a melt curve analysis from 65° C. to 95° C. was performed to confirm product specificity. For the detection and quantification of negative stranded bee viruses, replication intermediates, TAG-DWV primers were substituted for random primers or oligos (see e.g., Boncristiani et al., 2009). The fold difference in viral concentration among different treatment groups was determined using the comparative Ct method (2^−ΔΔCT method) (see e.g., Livak & Schmittgen, 2001). Calibrators were chosen as the highest average treatment ΔCt value for each experiment.\nEmerging bees that had non-deformed wings (i.e., asymptomatic) were selected for a cage study (n=30 bees per cage & 6 replicate cages per treatment). […] Virally infected untreated bees were compared to bees fed 10 μg/bee MBCD in 50% sucrose solution. In FIG. 6A, DWV (+) sense viral genome titers were compared 3 and 6 days after treatment. An unpaired, 2-tailed Student's T-Test was performed to determine statistical significance (p<0.05 at 3 days feeding; N.S.=Non-significant 6 days after treatment). In FIG. 6B, DWV (−) sense replicative strand titers were compared 3 and 6 days after treatment. An unpaired, 2-tailed Student's T-Test was performed to determine statistical significance (p<0.0001 for 3 days post treatments; p=0.049 for 6 days post treatment). The “★” denotes the sample chosen as the 2^−ΔΔCT calibrator and bars denote standard error."}, "[5]": {"system": "European honey bees, Apis mellifera", "test": "Longevity of healthy adult worker bees in cage study after MBCD treatment", "type": "in vivo", "details": "healthy newly emerged bees, versus control", "experimental": "This example illustrates the baseline effects of the inventive composition in the absence of an exogenous stressor. Samples of European honey bees, Apis mellifera, were collected from colonies maintained in the apiaries of the USDA-ARS Bee Research Laboratory in Beltsville, Md. Frames with emerging brood were removed from colonies and individually placed in a mesh-walled cage. The cages were transferred to an insect growth chamber at 34° C. and 70% humidity. After 24 hrs incubation, newly emerged honey bees were transferred to a honey bee rearing cup, with a top-feeder design, allowing for easy sampling of honey bees (see e.g., Evans et al., 2009). A 3 mL syringe filled with 50% sugar syrup mixture was inverted over the top of the rearing cup to provision the caged honey bees. The honey bees were also provisioned with 1.5 grams of honey bee pollen supplement in patty form (e.g., Bee-Pro®, available from Mann Lake Ltd, Hackensack, Minn.), supplemented 10% (w/w) with ground fresh pollen, and placed on cotton paper on the cup cage bottoms. Syringes and sucrose solution were changed every 3 days and cotton paper was changed once per week.\nNewly emerged honey bees were placed in individual cages (n=30 bees per cage & 2 replicate cages per treatment) and fed using a syringe filled with 50% sucrose alone or supplemented with either 1, 10, or 100 μg MBCD per bee/per week. […]"}}}
{"substance": "methyl-β-cyclodextrin [MBCD]", "values": [{"measurement": "median lifespan", "setting": "[1]", "value": 9, "unit": "days"}, {"measurement": "decrease in GSTS1 transcript level", "setting": "[2]", "value": 1.5, "unit": "fold"}, {"measurement": "bee weight versus control", "setting": "[3]; 3 days after feeding", "value": "significantly higher weight"}, {"measurement": "bee weight versus control", "setting": "[3]; 6 days after feeding", "value": "statistically comparable"}, {"measurement": "decrease in DWV (+) sense viral genome", "setting": "[4]; 3 days after treatment", "value": "~2", "unit": "fold"}, {"measurement": "decrease in DWV (−) sense replicative strand", "setting": "[4]; 3 days post treatment", "value": "approximately 3 fold"}, {"measurement": "decrease in DWV (−) sense replicative strand", "setting": "[4]; 6 days post treatment", "value": "~2", "unit": "fold"}, {"measurement": "decrease in DWV (+) sense viral genome", "setting": "[4]; 6 days post treatment", "value": "non-significant decrease"}, {"measurement": "increase in median lifespan", "setting": "[5]; 1 μg MBCD per bee/per week in 50% sucrose", "value": 9, "unit": "days"}, {"measurement": "increase in median lifespan", "setting": "[5]; 10 μg MBCD per bee/per week in 50% sucrose", "value": 6.5, "unit": "days"}]}
